# Measurements reported in patent publication US9873704B2, “Heterocyclic compounds and their uses” (Amgen Inc., priority 2009, dated 2018).
# Biological target: T1, PI3Kδ (Homo sapiens, UniProt O00329)
# T1 construct: Full length p110 subunits of PI3k α, β and δ, N-terminally labeled with polyHis tag; polyHis (N); made in house; host or cells: Sf9 insect cells (baculovirus)
# Assay: PI3Kδ Alphascreen assay
# Assay type: biochemical
# Conditions: not given
# Description: Full length p110 subunits of PI3k α, β and δ, N-terminally labeled with polyHis tag, were coexpressed with p85 with Baculo virus expression vectors in sf9 insect cells. P110/p85 heterodimers were purified by sequential Ni-NTA, Q-HP, Superdex-100 chromatography. Purified α, β and δ isozymes were stored at −20° C. in 20 mM Tris, pH 8, 0.2M NaCl, 50% glycerol, 5 mM DTT, 2 mM Na cholate. […] The γ isozyme was purified by sequential Ni-NTA, Superdex-200, Q-HP chromatography. The γ isozyme was stored frozen at −80° C. in NaH2PO4, pH 8, 0.2M NaCl, 1% ethylene glycol, 2 mM β-mercaptoethanol.
# A PI3K Alphascreen® assay (PerkinElmer, Waltham, Mass.) was used to measure the activity of a panel of four phosphoinositide 3-kinases: PI3Kα, PI3Kβ, PI3Kγ, and PI3Kδ. Enzyme reaction buffer was prepared using sterile water (Baxter, Deerfield, Ill.) and 50 mM Tris HCl pH 7, 14 mM MgCl2, 2 mM sodium cholate, and 100 mM NaCl. 2 mM DTT was added fresh the day of the experiment. The Alphascreen buffer was made using sterile water and 10 mM Tris HCl pH 7.5, 150 mM NaCl, 0.10% Tween 20, and 30 mM EDTA. 1 mM DTT was added fresh the day of the experiment. Compound source plates used for this assay were 384-well Greiner clear polypropylene plates containing test compounds at 5 mM and diluted 1:2 over 22 concentrations. Columns 23 and 24 contained only DMSO as these wells comprised the positive and negative controls, respectively. Source plates were replicated by transferring 0.5 uL per well into 384-well Optiplates (PerkinElmer, Waltham, Mass.).
# Each PI3K isoform was diluted in enzyme reaction buffer to 2× working stocks. […] PI(4,5)P2 (Echelon Biosciences, Salt Lake City, Utah) was diluted to 10 μM and ATP was diluted to 20 μM. This 2× stock was used in the assays for PI3Kα and PI3Kβ. For assay of PI3Kγ and PI3Kδ, PI(4,5)P2 was diluted to 10 μM and ATP was diluted to 8 μM to prepare a similar 2× working stock. Alphascreen reaction solutions were made using beads from the anti-GST Alphascreen kit (PerkinElmer, Waltham, Mass.). Two 4× working stocks of the Alphascreen reagents were made in Alphascreen reaction buffer. In one stock, biotinylated-IP4 (Echelon Biosciences, Salt Lake City, Utah) was diluted to 40 nM and streptavidin-donor beads were diluted to 80 μg/mL. In the second stock, PIP3-binding protein (Echelon Biosciences, Salt Lake City, Utah) was diluted to 40 nM and anti-GST-acceptor beads were diluted to 80 μg/mL.
# 10 μL/well of the appropriate substrate 2× stock (containing 20 μM ATP for the PI3Kα and β assays and containing 8 μM ATP for the PI3Kγ and δ assays) was then added to Columns 1-24 of all plates. Plates were then incubated at room temperature for 20 minutes. In the dark, 10 μL/well of the donor bead solution was added to columns 1-24 of the plates to quench the enzyme reaction. The plates were incubated at room temperature for 30 minutes. Still in the dark, 10 μL/well of the acceptor bead solution was added to columns 1-24 of the plates. The plates were then incubated in the dark for 1.5 hours. The plates were read on an Envision multimode Plate Reader (PerkinElmer, Waltham, Mass.) using a 680 nm excitation filter and a 520-620 nm emission filter.
# T1 sequence (O00329 whole entry): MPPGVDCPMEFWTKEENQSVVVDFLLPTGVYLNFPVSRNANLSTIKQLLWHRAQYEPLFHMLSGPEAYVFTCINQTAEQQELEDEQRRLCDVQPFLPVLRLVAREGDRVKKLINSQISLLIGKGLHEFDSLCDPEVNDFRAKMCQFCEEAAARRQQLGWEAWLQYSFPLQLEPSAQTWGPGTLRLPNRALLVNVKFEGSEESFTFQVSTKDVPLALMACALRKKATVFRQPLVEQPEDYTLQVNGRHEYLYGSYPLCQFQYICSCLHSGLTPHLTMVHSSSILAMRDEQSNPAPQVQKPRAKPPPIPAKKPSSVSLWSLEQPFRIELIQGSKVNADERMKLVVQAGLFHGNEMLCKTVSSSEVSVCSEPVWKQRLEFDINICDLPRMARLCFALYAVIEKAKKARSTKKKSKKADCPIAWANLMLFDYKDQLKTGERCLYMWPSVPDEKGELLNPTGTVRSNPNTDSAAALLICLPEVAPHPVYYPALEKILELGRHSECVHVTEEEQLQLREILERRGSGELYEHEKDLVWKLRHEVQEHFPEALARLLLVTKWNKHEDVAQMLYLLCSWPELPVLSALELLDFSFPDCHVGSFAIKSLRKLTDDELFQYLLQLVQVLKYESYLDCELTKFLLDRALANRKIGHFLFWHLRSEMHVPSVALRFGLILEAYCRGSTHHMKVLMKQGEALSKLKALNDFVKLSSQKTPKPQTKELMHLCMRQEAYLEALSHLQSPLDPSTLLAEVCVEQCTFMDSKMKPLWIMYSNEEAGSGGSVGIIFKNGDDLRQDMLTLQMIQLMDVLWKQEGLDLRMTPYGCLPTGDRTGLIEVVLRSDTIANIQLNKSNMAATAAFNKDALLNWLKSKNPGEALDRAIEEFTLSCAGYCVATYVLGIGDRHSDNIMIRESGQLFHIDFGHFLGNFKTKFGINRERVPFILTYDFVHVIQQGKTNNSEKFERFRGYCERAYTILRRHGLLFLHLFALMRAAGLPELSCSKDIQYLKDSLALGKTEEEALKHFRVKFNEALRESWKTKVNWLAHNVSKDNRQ
# T1 sequence (P27986 whole entry partner): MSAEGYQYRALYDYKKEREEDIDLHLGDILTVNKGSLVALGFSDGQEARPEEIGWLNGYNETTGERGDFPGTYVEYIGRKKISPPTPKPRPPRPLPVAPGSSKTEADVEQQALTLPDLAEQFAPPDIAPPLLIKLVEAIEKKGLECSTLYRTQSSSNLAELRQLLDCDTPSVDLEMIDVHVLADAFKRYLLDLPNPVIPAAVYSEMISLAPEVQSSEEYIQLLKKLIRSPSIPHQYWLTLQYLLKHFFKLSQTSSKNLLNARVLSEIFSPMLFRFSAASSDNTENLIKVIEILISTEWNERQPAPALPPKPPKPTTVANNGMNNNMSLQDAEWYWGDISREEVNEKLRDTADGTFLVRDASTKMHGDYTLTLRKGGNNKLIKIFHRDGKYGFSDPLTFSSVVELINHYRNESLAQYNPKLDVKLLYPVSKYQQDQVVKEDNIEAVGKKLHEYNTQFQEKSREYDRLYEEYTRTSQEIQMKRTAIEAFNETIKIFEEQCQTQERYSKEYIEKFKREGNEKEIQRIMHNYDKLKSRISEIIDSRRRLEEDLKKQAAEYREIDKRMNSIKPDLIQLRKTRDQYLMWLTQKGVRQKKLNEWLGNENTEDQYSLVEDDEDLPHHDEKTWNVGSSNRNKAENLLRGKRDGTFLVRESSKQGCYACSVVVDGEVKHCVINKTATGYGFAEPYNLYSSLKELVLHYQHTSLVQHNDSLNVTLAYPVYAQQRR
row,Structure (SMILES),Ki [nM]
1,"CC(Nc1ncnc(N)c1C#N)c1nc2ccncc2cc1-c1ccccn1 (racemic) [4-Amino-6-(((1S, 1R)-1-(3-(2-pyridinyl)-1,6-naphthyridin-2-yl)ethyl)amino)-5-pyrimidinecarbonitrile]",470
2,"CC(Nc1ncnc(N)c1C#N)c1nc2ncccc2cc1-c1ccccn1 (racemic) [4-Amino-6-(((1S, 1R)-1-(3-(2-pyridinyl)-1,8-naphthyridin-2-yl)ethyl)amino)-5-pyrimidinecarbonitrile]",225
3,CC(Nc1ncnc2[nH]cnc12)c1nc2ccc(F)cc2cc1-c1ccccn1 (racemic) [N-(1-(6-Fluoro-3-(pyridin-2-yl)quinolin-2-yl)ethyl)-9H-purin-6-amine],21.3
4,"C[C@@H](Nc1ncnc(N)c1C#N)c1nc2ccc(F)cc2c(C(=O)N(C)C)c1-c1ccccn1 (stereo in doubt) [2-(1-((6-Amino-5-cyano-4-pyrimidinyl)amino)ethyl)-6-fluoro-N,N-dimethyl-3-(2-pyridinyl)-4-quinolinecarboxamide]",7.77
5,CC(Nc1ncnc(N)c1C#N)c1nc2ccc(F)cc2c([S+]([O-])CCO)c1-c1ccccc1 (stereo in doubt) [4-Amino-6-(1-(6-fluoro-4-((R)-2-hydroxyethylsulfinyl)-3-phenylquinolin-2-yl)ethylamino)pyrimidine-5-carbonitrile],2.48
6,CC(Nc1ncnc(N)c1C#N)c1nc2ccc(F)cc2c(C(=O)NCCN2CCOCC2)c1-c1ccccc1 (centres unmarked) [2-(1-((6-Amino-5-cyano-4-pyrimidinyl)amino)ethyl)-6-fluoro-N-(2-(4-morpholinyl)ethyl)-3-phenyl-4-quinolinecarboxamide],1.02
7,C[C@@H](Nc1ncnc(N)c1C#N)c1nc2cccc(C#N)c2cc1-c1ccccn1 [2-((1R)-1-((6-amino-5-cyano-4-pyrimidinyl)amino)ethyl)-3-(2-pyridinyl)-5-quinolinecarbonitrile],2640
8,C[C@H](Nc1ncnc(N)c1C#N)c1nc2cccc(C#N)c2cc1-c1ccccn1 [2-((1S)-1-((6-Amino-5-cyano-4-pyrimidinyl)amino)ethyl)-3-(2-pyridinyl)-5-quinolinecarbonitrile],14.1
9,"C[C@@H](c1nc2ccc(F)cc2cc1-c1cncc(F)c1)n1nc(C#N)c2c(N)ncnc21 [4-Amino-1-((S)-1-(6-fluoro-3-(5-fluoropyridin-3-yl)quinolin-2-yl)ethyl)-1H-pyrazolo[3,4-d]pyrimidine-3-carbonitrile]",25
10,"CC(Nc1ncnc(N)c1C#N)c1nc2ccc(F)cc2c(S(C)(=O)=O)c1-c1cc(F)cc(F)c1 (centres unmarked) [4-Amino-6-(1-(3-(3,5-difluorophenyl)-6-fluoro-4-(methylsulfonyl)quinolin-2-yl)ethylamino)pyrimidine-5-carbonitrile]",1.12
11,CC(Nc1ncnc(N)c1C#N)c1nc2ccc(F)cc2c(N2CC(O)C2)c1-c1ccccn1 (centres unmarked) [4-Amino-6-(1-(6-fluoro-4-(3-hydroxyazetidin-1-yl)-3-(pyridin-2-yl)quinolin-2-yl)ethylamino)pyrimidine-5-carbonitrile],1.78
12,COCCNc1c(-c2ccccc2)c(C(C)Nc2ncnc(N)c2C#N)nc2ccc(F)cc12 (centres unmarked) [4-Amino-6-(1-(6-fluoro-4-((2-methoxyethyl)amino)-3-phenyl-2-quinolinyl)-ethyl)amino)-5-pyrimidinecarbonitrile],1.35
13,CC(Nc1ncnc(N)c1C#N)c1nc2ccc(F)cc2c(CS(C)(=O)=O)c1-c1ccccc1 (centres unmarked) [4-Amino-6-(1-(6-fluoro-4-(methylsulfonylmethyl)-3-phenylquinolin-2-yl)-ethylamino)pyrimidine-5-carbonitrile],1.38
14,CC(Nc1ncnc(N)c1C#N)c1nc2ccc(F)cc2c(NCCS(C)(=O)=O)c1-c1ccccc1 (centres unmarked) [4-Amino-6-((1-(6-fluoro-4-((2-(methylsulfonyl)ethyl)amino)-3-phenyl-2-quinolinyl)ethyl)amino)-5-pyrimidinecarbonitrile],0.463
15,CC(Nc1ncnc(N)c1C#N)c1nc2ccc(F)cc2c(NCCO)c1-c1ccccc1 (centres unmarked) [4-Amino-6-((1-(6-fluoro-4-((2-hydroxyethyl)amino)-3-phenyl-2-quinolinyl)ethyl)amino)-5-pyrimidinecarbonitrile],0.396
16,CC(Nc1ncnc(N)c1C#N)c1nc2ccc(F)cc2c(C(=O)N2CCN(C)CC2)c1-c1ccccc1 (centres unmarked) [4-Amino-6-((1-(6-fluoro-4-((4-methyl-1-piperazinyl)carbonyl)-3-phenyl-2-quinolinyl)ethyl)amino)-5-pyrimidinecarbonitrile],1.32
17,"N#Cc1c(N)ncnc1NCc1nc2cccc(F)c2cc1-c1cc(F)cc(F)c1 [4-Amino-6-((3-(3,5-difluorophenyl)-5-fluoroquinolin-2-yl)methylamino)pyrimidine-5-carbonitrile]",246
18,CS(=O)(=O)c1ccccc1-c1cc2c(F)cccc2nc1CNc1ncnc(N)c1C#N [4-Amino-6-((5-fluoro-3-(2-(methylsulfonyl)phenyl)quinolin-2-yl)methylamino)pyrimidine-5-carbonitrile],39
19,N#Cc1c(N)ncnc1NCc1nc2cccc(F)c2cc1-c1cccc(F)c1 [4-Amino-6-((5-fluoro-3-(3-fluorophenyl)quinolin-2-yl)methylamino)pyrimidine-5-carbonitrile],102
20,N#Cc1c(N)ncnc1NCc1nc2cccc(F)c2cc1-c1ccccn1 [4-Amino-6-((5-fluoro-3-(pyridin-2-yl)quinolin-2-yl)methylamino)pyrimidine-5-carbonitrile],137

# Now from value to molecule:
row,Ki [nM],Structure (SMILES)
1,119,CC(Nc1ncnc(N)c1C#N)c1nc2ccc(F)cc2c(C(=O)O)c1-c1ccccn1 (centres unmarked) [2-1-((6-Amino-5-cyano-4-pyrimidinyl)amino)ethyl)-6-fluoro-3-(2-pyridinyl)-4-quinolinecarboxylic acid]
2,74.2,CC(Nc1ncnc(N)c1C#N)c1nc2ccc(F)cc2c(C(=O)O)c1-c1ccccc1 (centres unmarked) [2-(1-(6-Amino-5-cyanopyrimidin-4-ylamino)ethyl)-6-fluoro-3-phenylquinoline-4-carboxylic acid]
3,5.15,CC(Nc1ncnc(N)c1C#N)c1nc2ccc(F)cc2c(C(=O)NCC2CC2)c1-c1ccccc1 (centres unmarked) [2-(1-(6-Amino-5-cyanopyrimidin-4-ylamino)ethyl)-N-(cyclopropylmethyl)-6-fluoro-3-phenylquinoline-4-carboxamide]
4,7.16,CC(Nc1ncnc(N)c1C(N)=O)c1nc2ccc(F)cc2c(C(=O)O)c1-c1ccccc1 (centres unmarked) [2-(1-(6-amino-5-carbamoylpyrimidin-4-ylamino)ethyl)-6-fluoro-3-phenylquinoline-4-carboxylic acid]
5,59.1,C[C@@H](Nc1ncnc(N)c1C#N)c1nc2ccc(F)cc2c(C#N)c1-c1ccccc1 [2-((1R)-1-((6-Amino-5-cyano-4-pyrimidinyl)amino)ethyl)-6-fluoro-3-phenyl-4-quinolinecarbonitrile]
6,7.06,CC(Nc1ncnc(N)c1C#N)c1nc2ccc(F)cc2c(C(=O)N2CCCC2)c1-c1ccccc1 (centres unmarked) [4-Amino-6-((1-(6-fluoro-3-phenyl-4-(1-pyrrolidinylcarbonyl)-2-quinolinyl)-ethyl)amino)-5-pyrimidinecarbonitrile]
7,1.75,COC1CN(C(=O)c2c(-c3ccccc3)c(C(C)Nc3ncnc(N)c3C#N)nc3ccc(F)cc23)C1 (centres unmarked) [4-Amino-6-((1-(6-fluoro-4-((3-methoxy-1-azetidinyl)carbonyl)-3-phenyl-2-quinolinyl)ethyl)amino)-5-pyrimidinecarbonitrile]
8,25.6,CC(Nc1ncnc(N)c1C#N)c1nc2ccc(F)cc2c(C(=O)N2CC[C@@H](O)C2)c1-c1ccccc1 (stereo partly drawn) [4-Amino-6-((1-(6-fluoro-4-(((3R)-3-hydroxy-1-pyrrolidinyl)carbonyl)-3-phenyl-2-quinolinyl)ethyl)amino)-5-pyrimidinecarbonitrile]

# Same assay, conditions: listed as 4-amino-6-(-1-(6-fluoro-4-(((3R)-3-hydroxy-1-pyrrolidinyl)-carbonyl)-3-phenyl-2))
row,Ki [nM],Structure (SMILES)
1,5.07,CC(Nc1ncnc(N)c1C#N)c1nc2ccc(F)cc2c(C(=O)N2CC[C@@H](O)C2)c1-c1ccccc1 (stereo partly drawn) [4-Amino-6-((1-(6-fluoro-4-(((3R)-3-hydroxy-1-pyrrolidinyl)carbonyl)-3-phenyl-2-quinolinyl)ethyl)amino)-5-pyrimidinecarbonitrile]
